Measurements from patent US20050256003A1, “Novel herbicides” (priority 2002, published 2005).

System: selected test plants
Experiment: Post-emergence action in a different test arrangement (Table B3)
Format: in vivo
Parameters: key to Post-emergence action (different test arrangement), Nasturtium / Post-emergence action (different test arrangement), Stellaria / Post-emergence action (different test arrangement), Solanum: 10=total damage; 0=no action; Ratings of from 10 to 7 (especially from 10 to 8) indicate good to very good herbicidal action
Settings: 250 g a.i./ha

Compound | Post-emergence action (different test arrangement), Amaranthus | Post-emergence action (different test arrangement), Nasturtium | Post-emergence action (different test arrangement), Solanum | Post-emergence action (different test arrangement), Stellaria
CC1CCC(=O)N1Cc1nc(C(F)(F)F)ccc1C(=O)C1=C(O)CCCC1=O (stereo not shown) [Compound A1.223] | 8 | 10 | 9 | 9
O=C1CCCC(O)=C1C(=O)c1ccc(C(F)(F)F)nc1CN1CN(c2ccc(Cl)cc2)CC1=O [Compound A1.237] | 9 | 9 | 10 | 7
CN1CCN(Cc2nc(C(F)(F)F)ccc2C(=O)c2cnn(C)c2O)C1=O [Compound B1.211] | 9 | 10 | 9 | 8
Cn1ncc(C(=O)c2ccc(C(F)(F)F)nc2CN2CCCC2=O)c1O [Compound B1.223] | 8 | 10 | 9 | 10
Cn1ncc(C(=O)c2ccc(C(F)(F)F)nc2CN2CCC2=O)c1O [Compound B1.225] | 8 | 10 | 9 | 10
CC1CCN(Cc2nc(C(F)(F)F)ccc2C(=O)c2cnn(C)c2O)C1=O (stereo not shown) [Compound B1.226] | 8 | 10 | 9 | 9
Cn1ncc(C(=O)c2ccc(C(F)(F)F)nc2CN2CN(c3ccc(Cl)cc3)CC2=O)c1O [Compound B1.238] | 9 | 8 | 9 | 7
